Measured values taken from patent US20140213513A1 (Sanofi, priority 2012, published 2014).
Converted amounts (≈) assume the structure as drawn. Read-outs that look alike come from different tables or passages of the source. *1 amine or outer side, *2 acyl side, *3 side chain or, on linkers, in order; H or OH if unused. Where a SMILES comes first, the peptide text is derived from it. Side-chain parts run from the residue outwards. [ ]: non-standard residue; d: D form. The star is where a group is joined. γGlu = O=C(O)[C@H](CCC(=O)[*:2])N[*:1]; Stearoyl = CCCCCCCCCCCCCCCCCC(=O)*; Palmitoyl = CCCCCCCCCCCCCCCC(=O)*; Aib = CC(C)(N)C(=O)O

Legend:
[1] = biological target: T1, human GLP-1 receptor (hGLP-1 R) (Homo sapiens, UniProt P43220); assay: cAMP response of HEK-293 cells stably expressing human GLP-1 receptor (HTRF); type: cell-based; conditions: Table 7; cAMP formation
T1 construct: expressed in transfected cells
How it was run: (§1)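 cAMP accumulation was read by homogeneous time-resolved fluorescence after 30 min compound exposure at room temperature. Stable receptor-expressing HEK-293 cells, 400000 cells/ml, were used in HEPES-buffered HBSS containing 0.1% BSA and the phosphodiesterase inhibitor IBMX (2 mM).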

[2] = biological target: T2, human GIP receptor (hGIP R) (Homo sapiens, UniProt P48546); assay: cAMP response of HEK-293 cells stably expressing human GIP receptor (HTRF); type: cell-based; conditions: Table 7; cAMP formation
T2 construct: expressed in transfected cells
T2 sequence (P48546 22-466): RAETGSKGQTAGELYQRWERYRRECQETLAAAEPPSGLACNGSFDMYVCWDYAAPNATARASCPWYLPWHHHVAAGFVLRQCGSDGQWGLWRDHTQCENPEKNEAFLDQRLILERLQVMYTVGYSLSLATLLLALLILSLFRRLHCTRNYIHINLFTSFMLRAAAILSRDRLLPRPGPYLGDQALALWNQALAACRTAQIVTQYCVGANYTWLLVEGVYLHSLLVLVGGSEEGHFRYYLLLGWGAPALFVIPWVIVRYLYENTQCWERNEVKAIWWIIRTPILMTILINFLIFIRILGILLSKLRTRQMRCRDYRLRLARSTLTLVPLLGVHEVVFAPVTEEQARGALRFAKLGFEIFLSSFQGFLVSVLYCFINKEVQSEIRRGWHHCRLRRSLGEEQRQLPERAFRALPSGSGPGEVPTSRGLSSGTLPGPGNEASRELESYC
How it was run: as §1

[3] = biological target: T3, human glucagon receptor (hGLUC R) (Homo sapiens, UniProt P47871); assay: cAMP response of HEK-293 cells stably expressing human glucagon receptor (HTRF); type: cell-based; conditions: Table 7; cAMP formation
T3 construct: expressed in transfected cells
How it was run: as §1

[4] = Solubility testing in buffer (HPLC-UV of supernatant); type: physicochemical
[5] = pH 4.5, target concentration 1.0 mg/mL, read-out: Solubility (pH 4.5)
[6] = pH 7.4, target concentration 1.0 mg/mL, read-out: Solubility (pH 7.4)

T1 sequence (P43220 24-463): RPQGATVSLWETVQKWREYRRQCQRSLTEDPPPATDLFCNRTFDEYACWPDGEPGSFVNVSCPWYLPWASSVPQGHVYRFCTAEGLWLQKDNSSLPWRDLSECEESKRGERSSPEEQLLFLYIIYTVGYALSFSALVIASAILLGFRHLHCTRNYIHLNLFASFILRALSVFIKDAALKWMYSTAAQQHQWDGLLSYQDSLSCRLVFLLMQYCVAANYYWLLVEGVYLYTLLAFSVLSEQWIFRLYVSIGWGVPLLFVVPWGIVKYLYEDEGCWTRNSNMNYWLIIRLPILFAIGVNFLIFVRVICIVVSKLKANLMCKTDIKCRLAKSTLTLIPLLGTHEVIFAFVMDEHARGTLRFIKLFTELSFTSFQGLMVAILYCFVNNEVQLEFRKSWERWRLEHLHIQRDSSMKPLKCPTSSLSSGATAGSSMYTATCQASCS
T3 sequence (P47871 26-477): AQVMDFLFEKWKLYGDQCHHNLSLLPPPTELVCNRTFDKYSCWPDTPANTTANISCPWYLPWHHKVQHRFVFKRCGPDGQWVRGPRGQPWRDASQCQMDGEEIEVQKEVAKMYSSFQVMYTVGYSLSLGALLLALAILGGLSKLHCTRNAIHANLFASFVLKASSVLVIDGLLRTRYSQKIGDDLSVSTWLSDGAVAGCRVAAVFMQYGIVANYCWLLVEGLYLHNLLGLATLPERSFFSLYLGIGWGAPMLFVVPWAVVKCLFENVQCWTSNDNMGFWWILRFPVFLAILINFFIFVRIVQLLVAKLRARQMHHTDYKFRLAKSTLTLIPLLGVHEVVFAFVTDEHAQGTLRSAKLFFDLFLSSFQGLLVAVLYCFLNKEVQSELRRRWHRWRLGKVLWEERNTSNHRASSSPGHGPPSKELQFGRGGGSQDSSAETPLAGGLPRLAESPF

Row | SMILES | EC50 [1] | EC50 [2] | EC50 [3] | solubility at 2 h [4, 5] | solubility at 2 h [4, 6]
1 | CCCCCCCCCCCCCCCCCC(=O)N[C@@H](CCC(=O)NCCCC[C@H](NC(=O)[C@H](CCC(N)=O)NC(=O)[C@@H](NC(=O)[C@H](CO)NC(=O)[C@H](CC(C)C)NC(=O)[C@H](CC(=O)O)NC(=O)[C@H](CO)NC(=O)[C@@H](NC(=O)[C@H](Cc1ccccc1)NC(=O)[C@@H](NC(=O)CNC(=O)[C@H](CCC(=O)O)NC(=O)C(C)(C)NC(=O)[C@@H](N)Cc1ccc(O)cc1)[C@@H](C)O)[C@@H](C)O)[C@@H](C)CC)C(=O)N[C@@H](CCC(=O)O)C(=O)N[C@@H](CO)C(=O)N[C@@H](CCCCN)C(=O)N[C@@H](C)C(=O)N[C@@H](C)C(=O)N[C@@H](CCC(N)=O)C(=O)N[C@@H](CCC(=O)O)C(=O)N[C@@H](Cc1ccccc1)C(=O)N[C@H](C(=O)N[C@@H](CCC(=O)O)C(=O)N[C@@H](Cc1c[nH]c2ccccc12)C(=O)N[C@@H](CC(C)C)C(=O)N[C@@H](CCCCN)C(=O)N[C@@H](C)C(=O)NCC(=O)NCC(=O)N1CCC[C@H]1C(=O)N[C@@H](CO)C(=O)N[C@@H](CO)C(=O)NCC(=O)N[C@@H](C)C(=O)N1CCC[C@H]1C(=O)N1CCC[C@H]1C(=O)N1CCC[C@H]1C(=O)N[C@@H](CO)C(N)=O)[C@@H](C)CC)C(=O)O [SEQ ID NO: 42, Y-Aib-E-G-T-F-T-S-D-L-S-I-Q-K(yE-x70)-ESKAAQEFIEWLKAGGPSSGAPPPS-NH2] (H-Y[Aib]EGTFTSDLSIQK([γGlu-Stearoyl])ESKAAQEFIEWLKAGGPSSGAPPPS-NH2) | 6.2 pM | 12.9 pM | 8470 pM | > 1000 µg/mL | 936 µg/mL (≈ 208 µM)
2 | CCCCCCCCCCCCCCCCCC(=O)N[C@@H](CCC(=O)NCCCC[C@H](NC(=O)[C@H](CCC(N)=O)NC(=O)[C@@H](NC(=O)[C@H](CO)NC(=O)[C@H](CC(C)C)NC(=O)[C@H](CC(=O)O)NC(=O)[C@H](CO)NC(=O)[C@@H](NC(=O)[C@H](Cc1ccccc1)NC(=O)[C@@H](NC(=O)CNC(=O)[C@H](Cc1c[nH]cn1)NC(=O)C(C)(C)NC(=O)[C@@H](N)Cc1ccc(O)cc1)[C@@H](C)O)[C@@H](C)O)[C@@H](C)CC)C(=O)N[C@@H](CCC(=O)O)C(=O)N[C@@H](CCCCN)C(=O)N[C@@H](CCCNC(=N)N)C(=O)N[C@@H](C)C(=O)N[C@@H](C)C(=O)NC(C)(C)C(=O)N[C@@H](CCC(=O)O)C(=O)N[C@@H](Cc1ccccc1)C(=O)N[C@H](C(=O)N[C@@H](CCC(=O)O)C(=O)N[C@@H](Cc1c[nH]c2ccccc12)C(=O)N[C@@H](CC(C)C)C(=O)N[C@@H](CCCCN)C(=O)N[C@@H](CC(N)=O)C(=O)N[C@H](C(=O)NCC(=O)N1CCC[C@H]1C(=O)N[C@@H](CO)C(=O)N[C@@H](CO)C(=O)NCC(=O)N[C@@H](C)C(=O)N1CCC[C@H]1C(=O)N1CCC[C@H]1C(=O)N1CCC[C@H]1C(=O)N[C@@H](CO)C(N)=O)[C@@H](C)O)[C@@H](C)CC)C(=O)O [SEQ ID NO: 18, Y-Aib-H-G-T-F-T-S-D-L-S-I-Q-K(yE-x70)-E-K-R-A-A-Aib-E-F-I-E-W-L-K-N-T-G-P-S-S-G-A-P-P-P-S-NH2] (H-Y[Aib]HGTFTSDLSIQK([γGlu-Stearoyl])EKRAA[Aib]EFIEWLKNTGPSSGAPPPS-NH2) | 18.3 pM | 9.5 pM | 9.5 pM | 966 µg/mL (≈ 209 µM) | 768 µg/mL (≈ 166 µM)
3 | CCCCCCCCCCCCCCCC(=O)N[C@@H](CCC(=O)NCCCC[C@H](NC(=O)[C@H](CCC(N)=O)NC(=O)[C@H](CCCCN)NC(=O)[C@H](CO)NC(=O)[C@H](CC(C)C)NC(=O)[C@H](CC(=O)O)NC(=O)[C@H](CO)NC(=O)[C@@H](NC(=O)[C@H](Cc1ccccc1)NC(=O)[C@@H](NC(=O)CNC(=O)[C@H](CCC(N)=O)NC(=O)C(C)(C)NC(=O)[C@@H](N)Cc1ccc(O)cc1)[C@@H](C)O)[C@@H](C)O)C(=O)N[C@@H](CCC(=O)O)C(=O)N[C@@H](CO)C(=O)N[C@@H](CCCCN)C(=O)N[C@@H](C)C(=O)N[C@@H](C)C(=O)N[C@@H](CCC(N)=O)C(=O)N[C@@H](CCC(=O)O)C(=O)N[C@@H](Cc1ccccc1)C(=O)N[C@H](C(=O)N[C@@H](CCC(=O)O)C(=O)N[C@@H](Cc1c[nH]c2ccccc12)C(=O)N[C@@H](CC(C)C)C(=O)N[C@@H](CCCCN)C(=O)N[C@@H](C)C(=O)NCC(=O)NCC(=O)N1CCC[C@H]1C(=O)N[C@@H](CO)C(=O)N[C@@H](CO)C(=O)NCC(=O)N[C@@H](C)C(=O)N1CCC[C@H]1C(=O)N1CCC[C@H]1C(=O)N1CCC[C@H]1C(=O)N[C@@H](CO)C(N)=O)[C@@H](C)CC)C(=O)O [SEQ ID NO: 40, Y-Aib-Q-G-T-F-T-S-D-L-S-K-Q-K(yE-x53)-ESKAAQEFIEWLKAGGPSSGAPPPS-NH2] (H-Y[Aib]QGTFTSDLSKQK([γGlu-Palmitoyl])ESKAAQEFIEWLKAGGPSSGAPPPS-NH2) | 5.5 pM | 53.6 pM | 22.6 pM | 986 µg/mL (≈ 220 µM) | 993 µg/mL (≈ 222 µM)
4 | CCCCCCCCCCCCCCCC(=O)N[C@@H](CCC(=O)NCCCC[C@H](NC(=O)[C@H](CCC(N)=O)NC(=O)[C@@H](NC(=O)[C@H](CO)NC(=O)[C@H](CC(C)C)NC(=O)[C@H](CC(=O)O)NC(=O)[C@H](CO)NC(=O)[C@@H](NC(=O)[C@H](Cc1ccccc1)NC(=O)[C@@H](NC(=O)CNC(=O)[C@H](CCC(N)=O)NC(=O)C(C)(C)NC(=O)[C@@H](N)Cc1ccc(O)cc1)[C@@H](C)O)[C@@H](C)O)[C@@H](C)CC)C(=O)N[C@@H](CC(=O)O)C(=O)N[C@@H](CCCCN)C(=O)N[C@@H](CCCNC(=N)N)C(=O)N[C@@H](CCCNC(=N)N)C(=O)N[C@@H](C)C(=O)N[C@@H](CCC(N)=O)C(=O)N[C@@H](CC(=O)O)C(=O)N[C@@H](Cc1ccccc1)C(=O)N[C@H](C(=O)N[C@@H](CCC(=O)O)C(=O)N[C@@H](Cc1c[nH]c2ccccc12)C(=O)N[C@@H](CC(C)C)C(=O)N[C@@H](CCCCN)C(=O)N[C@@H](C)C(=O)NCC(=O)NCC(=O)N1CCC[C@H]1C(=O)N[C@@H](CO)C(=O)N[C@@H](CO)C(=O)NCC(=O)N[C@@H](C)C(=O)N1CCC[C@H]1C(=O)N1CCC[C@H]1C(=O)N1CCC[C@H]1C(=O)N[C@@H](CO)C(N)=O)[C@@H](C)CC)C(=O)O [SEQ ID NO: 53, Y-Aib-Q-G-T-F-T-S-D-L-S-I-Q-K(yE-x53)-DKRRAQDFIEWLKAGGPSSGAPPPS-NH2] (H-Y[Aib]QGTFTSDLSIQK([γGlu-Palmitoyl])DKRRAQDFIEWLKAGGPSSGAPPPS-NH2) | 13.6 pM | 93.2 pM | 7.9 pM | 932 µg/mL (≈ 203 µM) | 958 µg/mL (≈ 209 µM)
5 | CCCCCCCCCCCCCCCC(=O)N[C@@H](CCC(=O)NCCCC[C@H](NC(=O)[C@H](CCC(N)=O)NC(=O)[C@@H](NC(=O)[C@H](CO)NC(=O)[C@H](CC(C)C)NC(=O)[C@H](CC(=O)O)NC(=O)[C@H](CO)NC(=O)[C@@H](NC(=O)[C@H](Cc1ccccc1)NC(=O)[C@@H](NC(=O)CNC(=O)[C@H](CCC(N)=O)NC(=O)C(C)(C)NC(=O)[C@@H](N)Cc1ccc(O)cc1)[C@@H](C)O)[C@@H](C)O)[C@@H](C)CC)C(=O)N[C@@H](CCC(=O)O)C(=O)N[C@@H](CCCCN)C(=O)N[C@@H](CCCNC(=N)N)C(=O)N[C@@H](C)C(=O)N[C@H](C(=O)NC(C)(C)C(=O)N[C@@H](CC(C)C)C(=O)N[C@@H](Cc1ccccc1)C(=O)N[C@H](C(=O)N[C@@H](CCC(=O)O)C(=O)N[C@@H](Cc1c[nH]c2ccccc12)C(=O)N[C@@H](CC(C)C)C(=O)N[C@@H](CCCCN)C(=O)N[C@@H](C)C(=O)NCC(=O)NCC(=O)N1CCC[C@H]1C(=O)N[C@@H](CO)C(=O)N[C@@H](CO)C(=O)NCC(=O)N[C@@H](C)C(=O)N1CCC[C@H]1C(=O)N1CCC[C@H]1C(=O)N1CCC[C@H]1C(=O)N[C@@H](CO)C(N)=O)[C@@H](C)CC)C(C)C)C(=O)O [SEQ ID NO: 24, Y-Aib-Q-G-T-F-T-S-D-L-S-I-Q-K(yE-x53)-E-K-R-A-V-Aib-L-F-I-E-W-L-K-A-G-G-P-S-S-G-A-P-P-P-S-NH2] (H-Y[Aib]QGTFTSDLSIQK([γGlu-Palmitoyl])EKRAV[Aib]LFIEWLKAGGPSSGAPPPS-NH2) | 19.2 pM | 10.4 pM | 284 pM | > 1000 µg/mL | 976 µg/mL (≈ 217 µM)
